{
  "source": "patent US7902260B2",
  "about": "“Medicament for preventive and/or therapeutic treatment of lower urinary tract symptom” (Kemphys Ltd., priority 2007, dated 2011)",
  "tested_on": "Rat Hydrochloric Acid-induced Cystitis Model",
  "assay": "Evaluation in a rat hydrochloric acid-induced cystitis model (cystometry)",
  "assay_type": "in vivo",
  "experimental": "On day 1, Crlj:CD(SD) male rats at 8 weeks of age were anesthetized by 2% isofurane inhalation and the abdomen of the rats were opened. After cannula was inserted into the bladder and fixed, the incision was closed with suture. On day 2, 0.2 N hydrochloric acid was injected into the bladder through cannula for 15 min to induce cystitis. On day 3, the first oral administration of a drug was performed. Since then, the drug was administrated once a day continuously for 7 days. As a retinoid drug, 3 mg/kg tamibarotene (Am80, 4-[(5,6,7,8-tetrahydro-5,5,8,8-tetramethyl-2-naphthalenyl)-carbamoyl] benzoic acid) suspended in 0.5% carboxymethylcellulose was orally administered. For the control group, 0.5% carboxymethylcellulose was orally administered. On day 10, bladder function under unanesthetized and unrestrained state was evaluated by cystometry. Via a three-way stopcock, warm saline (37° C.) was infused into the tube which was inserted into the bladder. At the other end of a three-way stopcock, bladder pressure was measured for 60 min by a pressure amplifier through a pressure transducer. At the same time, the weight change of excreted urine was measured using a balance. From these measured data, basal bladder pressure, maximum bladder pressure, micturition interval, and micturition volume were calculated. 5 rats were used in each group, control and tamibarotene group.\nValues were indicated as average ±standard error. The difference between averages of control group and tamibarotene group was evaluated by Student's t-test (***p<0.001 compared with control).",
  "key": {"[1]": {"conditions": "3 mg/kg oral once a day for 7 days, cystometry on day 10, unanesthetized unrestrained rats, average ± standard error"}},
  "data": [
    {"smiles": "CC1(C)CCC(C)(C)c2cc(NC(=O)c3ccc(C(=O)O)cc3)ccc21", "note": "[Tamibarotene, 4-[(5,6,7,8-tetrahydro-5,5,8,8-tetramethyl-2-naphthalenyl)-carbamoyl] benzoic acid]", "values": [
      {"measurement": "Basal bladder pressure", "setting": "[1]", "result": "15.1 ± 2.8", "unit": "mmHg"},
      {"measurement": "Maximum bladder pressure", "setting": "[1]", "result": "36.6 ± 6.0", "unit": "mmHg"},
      {"measurement": "Micturition volume", "setting": "3 mg/kg oral once a day for 7 days, cystometry on day 10, average ± standard error", "result": "0.61 ± 0.24", "unit": "g"},
      {"measurement": "Micturition interval", "setting": "3 mg/kg oral once a day for 7 days, cystometry on day 10, average ± standard error, ***p<0.001 compared with control", "result": "884 ± 113*** second"},
      {"measurement": "Micturition interval compared to control group (in words)", "setting": "3 mg/kg tamibarotene-administered group vs control, Student's t-test", "result": "significantly improved"}
    ]}
  ]
}
